PubChem BioAssay AID602184 (Broad Institute, 2012)
The source made the active and inactive calls.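 Rule for the calls: active = compounds whose fitted half-effect growth-inhibition concentration is no more than twice their top tested dose; inconclusive = flat curve showing moderate inhibition, or an unreliable curve fit; inactive = the rest.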

Experiments:
[1] = test system: S. cerevisiae growth in glycerol medium, OD600, 48 h; assay: yeast respiratory growth inhibition – glycerol medium, OD600, dry powder, dose response (AID 602184)
[2] = as above; details: S. cerevisiae growth in glycerol medium, OD600, 48 h

Row | SMILES | AC50 [1] [µM] | also measured
1 | CCOC(=O)N1C(=O)C2(CCCCC2)N(c2ccc(C)cc2)C1=S | < 0.08 | –
2 | C=CCNC(=S)N/N=C(\C)c1ccccn1 | 8.88 | –
3 | Cc1cc(C)n(-c2nc3ccccc3c(=O)n2OCC#N)n1 | – | activity change, negative = growth inhibition ([2]; at 19.5 µM (top of the series)): -14.8% (inactive)
4 | O=C(Nc1nnc(-c2ccc3c(c2)CCCC3)o1)c1ccccc1 | 16.1 | –
5 | O=C(Oc1c(Cl)cc(Cl)c2cccnc12)c1ccco1 | 0.64 | –
6 | O=C(NNC(=S)Nc1ccc(Cl)c(Cl)c1)c1ccccn1 | 12.7 | –
7 | Oc1c(CN2CCN(c3ccccc3)CC2)cc(Cl)c2cccnc12 | – | activity change, negative = growth inhibition ([2]; at 23.5 µM (top of the series)): -52.9% (inactive)
8 | COc1ccc(-c2nnc(NC(=O)c3ccc(S(=O)(=O)N4CCCc5ccccc54)cc3)o2)cc1 | – | activity change, negative = growth inhibition ([2]; at 19.5 µM (top of the series)): -22.8% (inactive)
9 | Oc1c(C(c2ccc(Cl)cc2)N2CCCC2)ccc2cccnc12 (centres undefined) | – | activity change, negative = growth inhibition ([2]; at 19.5 µM (top of the series)): -8.5% (inactive)
10 | CN1CCN(C(c2ccc(C(F)(F)F)cc2)c2ccc3cccnc3c2O)CC1 (centres undefined) | 3.1 | –
11 | NC(=O)c1cccc(C(=O)Nc2nc(-c3ccc4c(c3)CCCC4)cs2)c1 | – | activity change, negative = growth inhibition ([2]; at 19.5 µM (top of the series)): -13.9% (inactive)
12 | CCCC(=O)NC(c1cccs1)c1cc(Cl)c2cccnc2c1O (centres undefined) | 10.6 | –
13 | O=C(Nc1nc(-c2ccc3c(c2)CCCC3)cs1)c1ccccc1 | – | activity change, negative = growth inhibition ([2]; at 19.5 µM (top of the series)): -4.76% (inactive)
14 | O=C(Nc1nc(-c2ccccn2)cs1)c1ccc(Cl)s1 | 1.55 | –
15 | C/C(=N\NC(=O)c1cc2ccccc2cc1O)c1ccccn1 | 14.4 | –
16 | Cc1ccc(-c2nc3c(Cl)cc(Cl)cc3c(=O)n2O)cc1 | 3.71 | –
17 | Cc1ccc(C(=O)Nc2nc(-c3ccccn3)cs2)cc1 | 6.34 | –
18 | Oc1c(C(c2ccccc2Cl)N2CCCCC2)ccc2cccnc12 (centres undefined) | 21.8 | –
19 | O=C(Nc1nc(-c2ccccn2)cs1)c1ccccc1 | 18.9 | –
20 | O=C(Nc1nnc(-c2ccc3c(c2)CCCC3)o1)c1ccc(Cl)cc1Cl | 14.8 | –
21 | O=C(Nc1nc(-c2ccccn2)cs1)c1ccc(Br)s1 | 1.01 | –
22 | Oc1c(CN2CCc3ccccc3C2)cc(Cl)c2cccnc12 | 8.17 | –
23 | O=C(Nc1nc(-c2ccccc2)cs1)c1ccc(Br)s1 | – | activity change, negative = growth inhibition ([2]; at 19.5 µM (top of the series)): -11.7% (inactive)
24 | Cc1ccc(C(=O)Nc2nnc(-c3ccccc3)o2)cc1C | – | activity change, negative = growth inhibition ([2]; at 19.5 µM (top of the series)): -3.03% (inactive)
